The text below walks through data of publication PMC7891710, “The narrow-spectrum anthelmintic oxantel is a potent agonist of a novel acetylcholine receptor subtype in whipworms” (PLoS Pathogens, 2021).

The target of experiment [1] is T1, Tsu-ACR-16-like receptor (O-AChR) (Trichuris suis, UniProt A0A890W0I7).
T1 construct: full-length Tsu-ACR-16-like (GenBank MT386096), homomeric channel co-expressed with Asu-RIC-3 in Xenopus laevis oocytes
Briefly: two-electrode voltage clamp in Xenopus oocytes, agonist dose-response. It is filed as cell-based.

Experiment [2] concerns the target T1, Tsu-ACR-16-like receptor (O-AChR). Briefly: two-electrode voltage clamp in Xenopus oocytes, agonist dose-response (partial, Imax […]). It is filed as cell-based.

Structures are written as SMILES.

T1 sequence (A0A890W0I7 entry or part of it): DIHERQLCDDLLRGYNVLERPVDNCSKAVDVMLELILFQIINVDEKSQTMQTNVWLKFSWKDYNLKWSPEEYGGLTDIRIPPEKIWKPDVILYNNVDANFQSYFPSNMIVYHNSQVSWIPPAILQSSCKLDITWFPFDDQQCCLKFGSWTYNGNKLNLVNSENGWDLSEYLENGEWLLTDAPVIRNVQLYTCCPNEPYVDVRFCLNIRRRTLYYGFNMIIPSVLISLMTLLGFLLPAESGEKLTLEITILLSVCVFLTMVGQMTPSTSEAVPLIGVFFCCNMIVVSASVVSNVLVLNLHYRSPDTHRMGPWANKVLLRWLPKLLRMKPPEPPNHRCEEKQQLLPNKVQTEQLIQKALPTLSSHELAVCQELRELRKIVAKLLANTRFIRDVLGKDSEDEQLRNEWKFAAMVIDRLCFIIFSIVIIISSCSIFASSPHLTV

In the case of `CC(=O)OCC[N+](C)(C)C` [ACh, acetylcholine], the EC50 in experiment [1] came out at 14.5 µM.
On the same count and under the same terms, the same measure for `CN1CCCN=C1/C=C/c1cccc(O)c1` [oxa, oxantel]: 9.49 µM.
As to `CN1CCCN=C1/C=C/c1cccs1` [pyr, pyrantel], a half-maximal effect in experiment [2] (EC50) was put at 148 µM.
